Consider three molecules from patent US20220386613A1, “WEED CONTROL METHOD AND MIXED AGROCHEMICAL COMPOSITION FOR SOIL TREATMENT” (KUMIAI CHEMICAL INDUSTRY CO., LTD., priority 2019, published 2022).

What all share (type): in vivo
In series [1] the test system is redroot amaranth (Amaranthus retroflexus). Nature of the series: Herbicidal effect evaluation test on weeds by soil treatment (redroot amaranth). The following applies: Day 18 after treatment (4 L). The protocol: (§1) In a greenhouse having an average temperature of 25° C. (highest: 30° C., lowest: 25° C.), field soil (sandy loam) was filled in a plastic pot of 11 cm in length, width and depth, and twenty seeds of each of barnyard grass (Echinochloa crus-galli) and redroot amaranth (Amaranthus retroflexus) were sowed and covered with the same soil at a thickness of 1 cm. […] On the day of this chemical treatment, a total of 2-mm rainfall was artificially applied in 30 minutes using an artificial rain maker. Thereafter, barnyard grass and redroot amaranth were grown and, on Day 18 after the treatment, the growth conditions of barnyard grass and redroot amaranth were observed and examined. The rates of reduction in the plant height and the number of leaves relative to an untreated area were each calculated, and the herbicidal effect was determined as a value obtained by adding the thus calculated rates of reduction and dividing this value by 2 for evaluation of the degree of the herbicidal effect. For example, the herbicidal effect is 90% when the plant height was decreased by 90% and the number of leaves was reduced from 10 to 1, while the herbicidal effect is 75% when the plant height was decreased by 70% and the number of leaves was reduced from 5 to 1. It is noted here that, in Table 1, each value of the herbicidal effect represents an average value of two herbicidal effect evaluation tests.

Another series concerns soybean (Glycine max). Nature of the series: Evaluation test of crop injury to soybean by soil treatment. Conditions: 15-mm rainfall. The procedure:
In a greenhouse having an average temperature of 25° C. (highest: 30° C., lowest: 25° C.), field soil (sandy loam) was filled in a plastic pot of 11 cm in length, width and depth, and a single seed of soybean (Glycine max) was sowed and covered with the same soil at a thickness of 2 cm. […] On the day of this chemical treatment, a total of 15-mm rainfall was artificially applied in 30 minutes using an artificial rain maker. Thereafter, the soybean was grown and, on Day 15 and Day 39 after the treatment or on Day 13 and Day 26 after the treatment, the growth conditions of the soybean were observed and examined in terms of the plant height and the number of leaves. The rates of reduction in the plant height and the number of leaves relative to an untreated area were each determined, and the thus determined rates of reduction were added and then divided by 2 to calculate the growth inhibition rate for evaluation of the degree of crop injury. […] It is noted here that, in Tables 2 to 5, each growth inhibition rate represents an average value of two crop injury evaluation tests. […] The values observed in the test each indicated an effect lower than the expected value calculated by the following Colby formula at a preferable dosage (see S. R. Colby, Weeds 15(1967), pp. 20-22). Colby's formula defines the expected value (E) as follows for the use of a combination of two chemical agents: (E)=X+Y−XY/100 wherein X represents the growth inhibition rate of an agent a at a concentration of x, and Y represents the growth inhibition rate of an agent b at a concentration of y.

Series [2] relates to barnyard grass (Echinochloa crus-galli). The series is described as follows: Herbicidal effect evaluation test on weeds by soil treatment (barnyard grass). Conditions: Day 18 after treatment (4.2 L). The procedure:
as §1

Where [3] appears, read: active component 25 g/ha (saflufenacil).
Where [4] appears, read: active component 50 g/ha (saflufenacil).
Setting [5] is: active component 160 g/ha (sulfentrazone).
Setting [6] is: active component 320 g/ha (sulfentrazone).
Where [7] appears, read: active component 70 g/ha (flumioxazin).
The mark [8] stands for this setting: active component 140 g/ha (flumioxazin).

`CC(C)N(C)S(=O)(=O)NC(=O)c1cc(-n2c(=O)cc(C(F)(F)F)n(C)c2=O)c(F)cc1Cl` [Saflufenacil, saflufenacil]: the “Herbicidal effect, redroot amaranth” value in series [1] (setting [3]) and in series [1] (setting [4]) was 100% in each case. Besides, the “Soybean growth inhibition rate” value in the series on soybean (Glycine max) (Table 4, 25 g/ha (saflufenacil), Day 13 after treatment) came to 20%; in the series on soybean (Glycine max) (Table 4, 25 g/ha (saflufenacil), Day 26 after treatment), 30%; in the series on soybean (Glycine max) (Table 5, 50 g/ha (saflufenacil), Day 13 after treatment), 30%; in the series on soybean (Glycine max) (Table 5, 50 g/ha (saflufenacil), Day 26 after treatment), 30%. For the same molecule, the “Herbicidal effect, barnyard grass” value is reported as 15% in series [2] (setting [3]) and 65% in series [2] (setting [4]).

For `Cc1nn(-c2cc(NS(C)(=O)=O)c(Cl)cc2Cl)c(=O)n1C(F)F` [Sulfentrazone, sulfentrazone], the “Herbicidal effect, redroot amaranth” value in series [1] (setting [5]) and in series [1] (setting [6]) was 100% throughout. Moreover, the “Herbicidal effect, barnyard grass” value in series [2] (setting [5]) and in series [2] (setting [6]) was 100% throughout.

Take `C#CCN1C(=O)COc2cc(F)c(N3C(=O)C4=C(CCCC4)C3=O)cc21` [Flumioxazin, flumioxazin]: the “Herbicidal effect, redroot amaranth” value in series [1] (setting [7]) and in series [1] (setting [8]) was 100% throughout. In addition, the “Soybean growth inhibition rate” value in the series with soybean (Glycine max) (Table 2, 70 g/ha (flumioxazin), Day 15 after treatment) was 15%; with soybean (Glycine max) (Table 2, 70 g/ha (flumioxazin), Day 39 after treatment), 5%; with soybean (Glycine max) (Table 3, 140 g/ha (flumioxazin), Day 15 after treatment), 25%; in the series with soybean (Glycine max) (Table 3, 140 g/ha (flumioxazin), Day 39 after treatment) it was 10%; in the series on soybean (Glycine max) (Table 4, 70 g/ha (flumioxazin), Day 13 after treatment), 8%; in the series on soybean (Glycine max) (Table 4, 70 g/ha (flumioxazin), Day 26 after treatment), 10%. The “Herbicidal effect, barnyard grass” value in series [2] (setting [7]) and in series [2] (setting [8]) was 100% each time.
